This data set can be described thus: recombinant barcode read abundance after kanamycin selection (control-corrected) (log10(CPM+1)); higher = more efficient recombination; sequences stand for … in AGTGCAGAGAAAATCGGCCAGTTTTCTCTGCCTGCAGTCCGCATGCCGT…AGATTTATGCAGCGGACTGCCTTTCTCCCAAAGTGATAAACCGGACAGTATCATGGACCGGTTTTCCCGGTAATCCGTATTTGCAAGGTTGGTTTCACT; site = the 11-nt target. In outline:
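Recombination efficiency comes from barcode counts at recombinant junctions, converted to counts per million, averaged and corrected against the control. Values appear as log10(CPM+1). They were obtained from a pooled E. coli screen in which each oligo paired a target with an IS621 bridge RNA target-binding loop, and cells were plated in duplicate on chloramphenicol/ampicillin LB agar or on chloramphenicol/ampicillin/kanamycin with 0.1 mM IPTG.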
For “TCAGGAGCTTGGGTTCTAACCTGTTGCAG (site TCAGGAGCTCT)”, the “recombinant barcode read abundance (log10)” value came to 1.57.
The value for “TCATTGACTTGGGTTCTAACCTGTTGCCT (site TCATTGACTAG)” was 0.622; that for “TCATTGACTTGGGTTCTAACCTGTTGCCT (site TTATTCACTAG)” was 0.0739; that for “TCCAAATCTTGGGTTCTAACCTGTTGCCT (site AGACTGACTCC)” was 0.109.
Take “TCCAAATCTTGGGTTCTAACCTGTTGCCT (site TCCAAATCTAG)”: the “recombinant barcode read abundance (log10)” value came out at 0.317.
For “TCCAACCCTTGGGTTCTAACCTGTTGCAG (site TCCAAACCTCT)”, the “recombinant barcode read abundance (log10)” value came out at 0.066.
“TCCAACCCTTGGGTTCTAACCTGTTGCAG (site TCCAACCCTCT)”: the “recombinant barcode read abundance (log10)” value came out at 1.69.
Regarding “TCCAACCCTTGGGTTCTAACCTGTTGCAG (site TCCAAGCCTCT)”, the “recombinant barcode read abundance (log10)” value was 0.0523.
The figure for “TCCAACCCTTGGGTTCTAACCTGTTGCAG (site TCCAATCCTCT)” is 0.0309; for “TCCAACCCTTGGGTTCTAACCTGTTGCTG (site GCCAAGCCTCA)” it is 0.0799; for “TCCAACCCTTGGGTTCTAACCTGTTGCTG (site TCCAACCCTCA)” it is 1.65.
As for “TCCAACCCTTGGGTTCTAACCTGTTGCTT (site CAGGGGACTGT)”, the “recombinant barcode read abundance (log10)” value worked out at 0.0296.
The figure for “TCCAACCCTTGGGTTCTAACCTGTTGCTT (site TCCAACCCTAA)” is 0.391; for “TCCAACTCTTGGGTTCTAACCTGTTGCAC (site CATCCTACTAG)” it is 0.0443.
The value for “TCCAACTCTTGGGTTCTAACCTGTTGCAC (site TCCAACTCTGT)” was 0.903.
For the sequence “TCCAAGGCTTGGGTTCTAACCTGTTGCTA (site CTGCGTACTCG)”, the “recombinant barcode read abundance (log10)” value is 0.0788.
The figure for “TCCAAGGCTTGGGTTCTAACCTGTTGCTA (site TCCAAGGCTTA)” is 0.275; for “TCCAATACTTGGGTTCTAACCTGTTGCCG (site TCCAACACTCG)” it is 0.0602.
In the case of “TCCAATACTTGGGTTCTAACCTGTTGCCG (site TCCAATACTCG)”, the “recombinant barcode read abundance (log10)” value is 0.269.
The figure for “TCCAGCTCTTGGGTTCTAACCTGTTGCCT (site ACCAGATCTAG)” is 0.0273; for “TCCAGCTCTTGGGTTCTAACCTGTTGCCT (site TCCAGCTCTAG)” it is 0.631.
On to “TCCAGGGCTTGGGTTCTAACCTGTTGCCT (site TCCAGGGCTAG)”, for which the “recombinant barcode read abundance (log10)” value turned out to be 0.185.
The figure for “TCCAGGGCTTGGGTTCTAACCTGTTGCCT (site TCCTGGCCTAG)” is 0.0786; for “TCCAGTACTTGGGTTCTAACCTGTTGCAT (site TCCAGTACTAT)” it is 0.351; for “TCCAGTACTTGGGTTCTAACCTGTTGCAT (site TCCCGTACTAT)” it is 0.0322.
As for “TCCAGTACTTGGGTTCTAACCTGTTGCAT (site TCCGGTACTAT)”, the “recombinant barcode read abundance (log10)” value amounted to 0.564.
With “TCCAGTACTTGGGTTCTAACCTGTTGCAT (site TCCTGTACTAT)”, the “recombinant barcode read abundance (log10)” value stood at 0.105.
The value for “TCCCATACTTGGGTTCTAACCTGTTGCGA (site CTTGGGTCTAT)” was 0.0603; that for “TCCCATACTTGGGTTCTAACCTGTTGCGA (site TCCCATACTTC)” was 1.57.
The value for “TCCCATCCTTGGGTTCTAACCTGTTGCCT (site TCCCATACTAG)” was 0.0689; that for “TCCCATCCTTGGGTTCTAACCTGTTGCCT (site TCCCATCCTAG)” was 0.757.
The value for “TCCCATCCTTGGGTTCTAACCTGTTGCCT (site TCCCATGCTAG)” was 0.0237; that for “TCCCATCCTTGGGTTCTAACCTGTTGCCT (site TCCCATTCTAG)” was 0.592.
Regarding “TCCCATCCTTGGGTTCTAACCTGTTGCGT (site TCCCATCCTAC)”, the “recombinant barcode read abundance (log10)” value came out at 2.38.
In the case of “TCCCATCCTTGGGTTCTAACCTGTTGCGT (site TCCTATCCTAC)”, the “recombinant barcode read abundance (log10)” value was 0.0583.
Regarding “TCCCGTACTTGGGTTCTAACCTGTTGCAT (site TCCAGTACTAT)”, the “recombinant barcode read abundance (log10)” value was 0.382.
The figure for “TCCCGTACTTGGGTTCTAACCTGTTGCAT (site TCCCGTACTAT)” is 0.43.
For the sequence “TCCCGTACTTGGGTTCTAACCTGTTGCAT (site TCCGGTACTAT)”, the “recombinant barcode read abundance (log10)” value is 0.0638.
The figure for “TCCCGTACTTGGGTTCTAACCTGTTGCAT (site TCCTGTACTAT)” is 0.159.
As for “TCCCTATCTTGGGTTCTAACCTGTTGCCT (site TACCTATCTAG)”, the “recombinant barcode read abundance (log10)” value was determined as 0.223.
The value for “TCCCTATCTTGGGTTCTAACCTGTTGCCT (site TCCCTATCTAG)” was 0.758; that for “TCCCTATCTTGGGTTCTAACCTGTTGCCT (site TGCCTATCTAG)” was 0.0386.
The value for “TCCCTATCTTGGGTTCTAACCTGTTGCCT (site TTCCTATCTAG)” was 0.0651; that for “TCCGACCCTTGGGTTCTAACCTGTTGCAC (site TCCGACCCTGT)” was 2.54; that for “TCCGACCCTTGGGTTCTAACCTGTTGCAC (site TCCGTCCCTAT)” was 0.0486.
Take “TCCGAGACTTGGGTTCTAACCTGTTGCCG (site TCCGAGACTAG)”: the “recombinant barcode read abundance (log10)” value came out at 0.541.
The value for “TCCGAGACTTGGGTTCTAACCTGTTGCCG (site TCCGAGACTCG)” was 1.93.
For “TCCGAGACTTGGGTTCTAACCTGTTGCCG (site TCCGAGACTGG)”, the “recombinant barcode read abundance (log10)” value stood at 0.0458.
The value for “TCCGAGACTTGGGTTCTAACCTGTTGCCG (site TCCGAGACTTG)” was 0.0796; that for “TCCGATTCTTGGGTTCTAACCTGTTGCGT (site GCCTATTCTAC)” was 0.19.
Regarding “TCCGATTCTTGGGTTCTAACCTGTTGCGT (site TCCGATTCTAC)”, the “recombinant barcode read abundance (log10)” value is 1.7.
Consider “TCCGCTACTTGGGTTCTAACCTGTTGCCT (site TCCGCTACTAG)”, for which the “recombinant barcode read abundance (log10)” value is 0.0438.
Regarding “TCCGCTACTTGGGTTCTAACCTGTTGCCT (site TCCGCTCCTAG)”, the “recombinant barcode read abundance (log10)” value came to 0.0689.
The figure for “TCCGCTACTTGGGTTCTAACCTGTTGCCT (site TCCGCTGCTAG)” is 0.0537.
The figure for “TCCGCTACTTGGGTTCTAACCTGTTGCCT (site TCCGCTTCTAG)” is 0.107.
Consider “TCCGCTTCTTGGGTTCTAACCTGTTGCCT (site TCCGCTACTAG)”, for which the “recombinant barcode read abundance (log10)” value came out at 0.321.
As to “TCCGCTTCTTGGGTTCTAACCTGTTGCCT (site TCCGCTCCTAG)”, the “recombinant barcode read abundance (log10)” value came out at 0.259.
The value for “TCCGCTTCTTGGGTTCTAACCTGTTGCCT (site TCCGCTGCTAG)” was 0.0858.
For the sequence “TCCGCTTCTTGGGTTCTAACCTGTTGCCT (site TCCGCTTCTAG)”, the “recombinant barcode read abundance (log10)” value amounted to 0.487.
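Further: IS621 recombinase and bridge RNA in Escherichia coli cells.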
